Patent US20210177856A1, “USE OF ATR INHIBITORS IN COMBINATION WITH PARP INHIBITORS” (Repare Therapeutics Inc., priority 2019, published 2021)

Assays:
[1] = test system: RPE1-hTERT TP53−/− RNASEH2B−/− cells; test: 6-day CTG viability assay, RPE1-hTERT TP53−/− RNASEH2B−/− cells; type: cell-based; details: Compound 43 combined with niraparib; compared with Compound 121 plus niraparib; FIGS. 3A and 3B
Protocol: Viability was measured with a 6-day CTG assay. Mean of three independent experiments±SD. Solid lines, non-linear least squares fit to a four-parameter dose-response model. IC50 values are indicated below panels. […] Viability was measured with a 6-day CTG assay. Mean of three independent experiments±SD. Solid lines, non-linear least squares fit to a four-parameter dose-response model. IC50 values are indicated below panels.

5637 RNASEH2B+/+ cells = test: ZIP synergy matrix and 7-day CTG viability assay, 5637 RNASEH2B+/+ cells; type: cell-based; details: combination of Compound 121 and niraparib, FIG. 1A
Protocol: (§1) FIG. 1A is chart showing ZIP synergy score matrix in RNASEH2B+/+ cells. […] Score of >10 indicates synergy, while <(−10) indicates antagonism. Dashed lines represent the IC50 value of each compound in the respective cell line. […] Viability was measured with a 7-day CTG assay. Mean of three independent experiments±SD. Solid lines, non-linear least squares fit to a four-parameter dose-response model. IC50 values are indicated below panels. […] Viability was measured with a 7-day CTG assay. Mean of three technical replicates±SD. Solid lines, non-linear least squares fit to a four-parameter dose-response model. IC50 values are indicated below panels.

5637 RNASEH2B−/− cells = test: ZIP synergy matrix and 7-day CTG viability assay, 5637 RNASEH2B−/− cells; type: cell-based; details: for concentration at maximum synergy, lower in RNASEH2B−/− than in RNASEH2B+/+ cells: FIGS. 1A and 1B
Protocol: as §1, with “1B” for “1A”, “RNASEH2B−/−” for “RNASEH2B+/+”

MIAPACA2 ATM−/− cells = test: 48 h treatment, CTG viability at day 6, MIAPACA2 ATM−/− cells; type: cell-based; details: 48 h treatment with combination of niraparib and Compound 121; MIAPACA2 ATM CRISPR knockout; FIGS. 6A and 6B
Protocol: (§2) Cells were treated for 48 h, followed by removal of the compounds and growth in fresh media. Viability was measured at day 6 by a CTG assay. Mean of three technical replicates±SD. Solid lines, non-linear least squares fit to a four-parameter dose-response model. IC50 values are indicated below panels. […] Cells were treated for 48 h, followed by removal of the compounds and growth in fresh media. Viability was measured at day 6 by a CTG assay. Mean of three technical replicates±SD. Solid lines, non-linear least squares fit to a four-parameter dose-response model. IC50 values are indicated below panels.

[2] = test system: RPE1-hTERT TP53−/− CDK12−/− cells; test: 48 h treatment, CTG viability at day 6, RPE1-hTERT TP53−/− CDK12−/− cells; type: cell-based; details: 48-hr treatment with combination of Compound 121 and niraparib; FIGS. 7A and 7B
Protocol: as §2, with “independent experiments±SD.” for “technical replicates±SD.”

DLD1 BRCA2−/− cells = test: 48 h treatment, CTG viability, DLD1 BRCA2−/− cells; type: cell-based; details: 48-hr treatment with combination of Compound 121 and talazoparib; FIGS. 8A and 8B
Protocol: (§3) FIG. 8A is a chart showing dose response curves of DLD1 BRCA2+/+ cells to talazoparib in the absence (DMSO) or presence of indicated concentrations of Compound 121. Cells were treated for 48 h, followed by removal of the compounds and growth in fresh media. Viability was measured at day 6 by a CTG assay. Mean of three independent experiments±SD. Solid lines, non-linear least squares fit to a four-parameter dose-response model. IC50 values are indicated below panels.
as §3, with “8B” for “8A”, “BRCA2−/−” for “BRCA2+/+”, “9” for “6”

[3] = test system: ALT-positive (ALT+) cancer cell lines; test: Cell viability of ALT+ and ALT− cancer cell line panels; type: cell-based; details: combination of low-nanomolar doses of Compound 121 and talazoparib; five ALT+ lines; FIGS. 9A and 9B
Protocol: FIG. 9A is a chart showing cell viability for ALT+ and ALT− cell lines that were untreated, treated with talazoparib alone, treated with compound 121 alone, or treated with a combination of talazoparib and compound 121.
FIG. 9B is a chart showing the cell viability for ALT+ and ALT− cells that were treated with a combination of talazoparib and compound 121.

[4] = test system: 5637 RNASEH2B+/+ and −/− cells; details: FIG. 5B
Protocol: FIG. 5A is a scheme showing the experimental design. 5637 cells were treated with niraparib alone or niraparib combined with an IC50 concentration of Compound 121 for indicated times with or without removal of compounds. Cell viability was analyzed by a CellTiter Glo (CTG) assay 168 h post treatment.
FIG. 5B is a chart showing apparent niraparib IC50 values in 5637 RNASEH2B+/+ and −/− cells from experiments described in FIG. 5A. Values were obtained by fitting mean data from three independent experiments to a four-parameter dose-response model. Error bars, 95% confidence interval (CI).
To guide the combined dosing of Compound 121 and niraparib in RNASEH2B-deficient tumor cells, a continuous 168 h concomitant treatment of 5637 RNASEH2B+/+ and −/− cells with both compounds was compared to either a 48 or 72 h treatment followed by removal of compounds and growth in drug-free media (FIG. 5A).

[5] = combination of Compound 121 and niraparib, 5637 cells

| apparent IC50 value of niraparib ([4]; in presence of Compound 121 (IC50 concentration), dosed continuously for 168 h) | difference in apparent IC50 values of niraparib when treatment shortened ([4]; with Compound 121, 72 or 48 h treatment then drug-free media vs 168 h continuous) | SMILES | sensitization of RNASEH2B-deficient cells [1] | synergy with niraparib (ZIP synergy score) (5637 RNASEH2B+/+ cells) | sensitization of RNASEH2B-deficient cells (5637 RNASEH2B−/− cells; Compound 121 combined with talazoparib, 5637 cells, 7-day CTG, FIGS. 4A and 4B) | synergy with niraparib (ZIP synergy score) (5637 RNASEH2B−/− cells; combination of Compound 121 and niraparib, 5637 RNASEH2B−/− cells, FIG. 1B) | concentration at maximum synergy, lower in RNASEH2B−/− than in RNASEH2B+/+ cells (5637 RNASEH2B−/− cells; [5]) | synergistic sensitization of ATM−/− clone (MIAPACA2 ATM−/− cells) [×] | sensitization of isogenic cell line lacking CDK12 [2] | sensitization of isogenic cell line lacking BRCA2 (DLD1 BRCA2−/− cells) | sensitivity of ALT+ panel relative to ALT− control panel [3] | shift of apparent IC50 of niraparib from RNASEH2B+/+ to RNASEH2B−/− cells (5637 RNASEH2B−/− cells; in presence of Compound 121, 5637 cells, 7-day CTG, FIGS. 2A and 2B) [fold] |
| --- | --- | --- | --- | --- | --- | --- | --- | --- | --- | --- | --- | --- |
| – | – | C[C@@H]1COCCN1c1cc(-c2ccccc2S(C)(=O)=O)c2cnn(-c3cc[nH]n3)c2n1 [Compound 43] | sensitized RNASEH2B-deficient cells to a similar extent | – | – | – | – | – | – | – | – | – |
| – | – | C[C@@H]1COCCN1c1cc([C@@]2(O)C[C@H]3CC[C@@H](C2)O3)c2cnn(-c3cc[nH]n3)c2n1 [Compound 121] | – | strongly synergized | strong sensitization | strongly synergized | ca. three-fold | > 300 | synergistically sensitized | synergistically sensitized | more sensitive | – |
| decreased | No significant difference | NC(=O)c1cccc2cn(-c3ccc([C@@H]4CCCNC4)cc3)nc12 [niraparib, reference compound] | – | – | – | – | ca. ten-fold | – | – | – | – | ≤ 200 |
